Assay results as given in patent publication US10738028B2, “Spiro three-membered ring, spiro five-membered ring peptide deformylase inhibitor and use thereof in antibacteria and anti-tumor” (priority 2016, dated 2020).
In brackets after ≈: the same amount, converted by molar mass.

What was measured:
Type in all cases: cell-based
[1] = test system: methicillin-sensitive Staphylococcus epidermidis (MSSE); test: MIC, two-fold agar dilution (CLSI), clinical isolates
Outline: (§1)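 Test samples were assayed by the CLSI-recommended two-fold agar dilution method, and the minimum inhibitory concentration against each tested strain was determined.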

[2] = test system: methicillin-sensitive Staphylococcus aureus (MSSA); test: as above
Outline: as §1

[3] = test system: Enterococcus faecalis (EFA); test: as above
Outline: as §1

[4] = test system: Moraxella catarrhalis (BCA); test: as above; conditions: for Anti-bacterial activity (MIC), strain BCA 14-10: clinical isolate BCA 14-10
Outline: as §1

[5] = test system: Enterococcus faecium (EFM); test: as above
Outline: as §1

[6] = test system: Streptococcus pneoumoniae (SPN); test: as above
Outline: as §1

[7] = test system: Escherichia coli (including ESBLs, non-ESBLs); test: as above
Outline: as §1

[8] = test system: methicillin-resistant Staphylococcus epidermidis (MRSE); test: as above
Outline: as §1

[9] = test system: methicillin-resistant Staphylococcus aureus (MRSA); test: as above
Outline: as §1

[10] = test system: HCT-116 colorectal cancer cell line; test: CCK-8 proliferation inhibition; conditions: Homo sapiens, HCT-116, 72 h, concentration of 30 μM; 72 hours; CCK-8; read-out: HCT116 inhibition rate/%
Outline: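 Growth inhibition is read by CCK-8 (1:10 dilution) after 72 h of compound exposure. HCT-116 cells grow in McCoy's 5A containing 10% newborn bovine serum at 2000 cells/well, with 1‰ DMSO as vehicle control.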

`Cc1cc(NC(=O)[C@@H]2CC3(CC3)CN2C(=O)[C@H](CC2CCCC2)CN(O)C=O)no1` [Example 39] showed an MIC (anti-bacterial activity) ([1]; strain MSSE 15-3) of 1 µg/mL (≈ 2.39 µM), an MIC (anti-bacterial activity) ([1]; strain MSSE 15-4) of 1 µg/mL (≈ 2.39 µM) and an MIC (anti-bacterial activity) ([1]; strain MSSE 15-5) of 1 µg/mL (≈ 2.39 µM). The MIC (anti-bacterial activity) ([1]; strain MSSE 15-6) was 1 µg/mL (≈ 2.39 µM), the MIC (anti-bacterial activity) ([2]; strain MSSA 15-3) was 1 µg/mL (≈ 2.39 µM) and the MIC (anti-bacterial activity) ([2]; strain MSSA 15-4) was 1 µg/mL (≈ 2.39 µM). The MIC (anti-bacterial activity) ([2]; strain MSSA 15-5) was 1 µg/mL (≈ 2.39 µM), the MIC (anti-bacterial activity) ([2]; strain MSSA 15-6) was 1 µg/mL (≈ 2.39 µM) and the MIC (anti-bacterial activity) ([3]; strain EFA 15-1) was 4 µg/mL (≈ 9.56 µM). It also gave an MIC (anti-bacterial activity) ([3]; strain EFA 15-2) of 4 µg/mL (≈ 9.56 µM), an MIC (anti-bacterial activity) ([3]; strain EFA 15-3) of 1 µg/mL (≈ 2.39 µM) and an MIC (anti-bacterial activity) ([3]; strain EFA 15-4) of 4 µg/mL (≈ 9.56 µM). For the same molecule, the MIC (anti-bacterial activity) ([3]; strain EFA 15-5) was 4 µg/mL (≈ 9.56 µM), the MIC (anti-bacterial activity) ([3]; strain EFA 15-6) was 4 µg/mL (≈ 9.56 µM) and the MIC (anti-bacterial activity) ([3]; strain EFA 15-9) was 4 µg/mL (≈ 9.56 µM). The Anti-bacterial activity (MIC), strain BCA 14-10 [4] was 0.5 µg/mL, the MIC (anti-bacterial activity) ([4]; strain BCA 14-1) was 1 µg/mL (≈ 2.39 µM) and the MIC (anti-bacterial activity) ([4]; strain BCA 14-4) was 1 µg/mL (≈ 2.39 µM). For the same molecule, the MIC (anti-bacterial activity) ([4]; strain BCA 14-5) was 0.5 µg/mL (≈ 1.19 µM), the MIC (anti-bacterial activity) ([4]; strain BCA 14-6) was 1 µg/mL (≈ 2.39 µM) and the MIC (anti-bacterial activity) ([4]; strain BCA 14-7) was 1 µg/mL (≈ 2.39 µM). The MIC (anti-bacterial activity) ([4]; strain BCA 14-8) was 1 µg/mL (≈ 2.39 µM), the MIC (anti-bacterial activity) ([5]; strain EFM 15-1) was 1 µg/mL (≈ 2.39 µM) and the MIC (anti-bacterial activity) ([5]; strain EFM 15-2) was 1 µg/mL (≈ 2.39 µM). The MIC (anti-bacterial activity) ([5]; strain EFM 15-3) was 0.5 µg/mL (≈ 1.19 µM), the MIC (anti-bacterial activity) ([5]; strain EFM 15-4) was 1 µg/mL (≈ 2.39 µM) and the MIC (anti-bacterial activity) ([5]; strain EFM 15-5) was 1 µg/mL (≈ 2.39 µM). For the same molecule, the MIC (anti-bacterial activity) ([5]; strain EFM 15-6) was 1 µg/mL (≈ 2.39 µM), the MIC (anti-bacterial activity) ([6]; strain SPN 16-2) was 0.5 µg/mL (≈ 1.19 µM) and the MIC (anti-bacterial activity) ([6]; strain SPN 16-4) was 4 µg/mL (≈ 9.56 µM). For the same molecule, the MIC (anti-bacterial activity) ([7]; strain ECO+ 15-1) was 16 µg/mL (≈ 38.2 µM), the MIC (anti-bacterial activity) ([7]; strain ECO+ 15-2) was 32 µg/mL (≈ 76.5 µM) and the MIC (anti-bacterial activity) ([7]; strain ECO+ 15-3) was 32 µg/mL (≈ 76.5 µM). It also gave an MIC (anti-bacterial activity) ([7]; strain ECO+ 15-4) of 16 µg/mL (≈ 38.2 µM), an MIC (anti-bacterial activity) ([7]; strain ECO− 15-1) of 32 µg/mL (≈ 76.5 µM) and an MIC (anti-bacterial activity) ([7]; strain ECO− 15-2) of 32 µg/mL (≈ 76.5 µM). For the same molecule, the MIC (anti-bacterial activity) ([7]; strain ECO− 15-3) was 32 µg/mL (≈ 76.5 µM), the MIC (anti-bacterial activity) ([7]; strain ECO− 15-4) was 32 µg/mL (≈ 76.5 µM) and the MIC (anti-bacterial activity) ([8]; strain MRSE 15-1) was 1 µg/mL (≈ 2.39 µM). It also gave an MIC (anti-bacterial activity) ([8]; strain MRSE 15-2) of 1 µg/mL (≈ 2.39 µM), an MIC (anti-bacterial activity) ([8]; strain MRSE 15-3) of 1 µg/mL (≈ 2.39 µM) and an MIC (anti-bacterial activity) ([8]; strain MRSE 15-7) of 1 µg/mL (≈ 2.39 µM). For the same molecule, the MIC (anti-bacterial activity) ([9]; strain MRSA 15-1) was 1 µg/mL (≈ 2.39 µM), the MIC (anti-bacterial activity) ([9]; strain MRSA 15-2) was 1 µg/mL (≈ 2.39 µM) and the MIC (anti-bacterial activity) ([9]; strain MRSA 15-3) was 1 µg/mL (≈ 2.39 µM). For the same molecule, the MIC (anti-bacterial activity) ([9]; strain MRSA 15-4) was 1 µg/mL (≈ 2.39 µM) and the inhibition at 30 µM [10] was -10%.
`O=CN(O)C[C@@H](CC1CCCC1)C(=O)N1CC2(CC2)C[C@H]1C(=O)Nc1nncs1` [Example 41, (S)-5-((R)-3-cyclopentyl-2-((N-hydroxyformamido)methyl)propionyl)-N-(1,3,4-thiadiazol-2-yl)-5-azaspiro[2.4]heptane-6-carboxamide] gave an Anti-bacterial activity (MIC), strain MSSE 15-3 ([1]; clinical isolate MSSE 15-3) of 1 µg/mL, an Anti-bacterial activity (MIC), strain MSSE 15-4 ([1]; clinical isolate MSSE 15-4) of 1 µg/mL and an Anti-bacterial activity (MIC), strain MSSE 15-5 ([1]; clinical isolate MSSE 15-5) of 1 µg/mL. For the same molecule, the Anti-bacterial activity (MIC), strain MSSE 15-6 ([1]; clinical isolate MSSE 15-6) was 1 µg/mL, the Anti-bacterial activity (MIC), strain MSSA 15-3 ([2]; clinical isolate MSSA 15-3) was 1 µg/mL and the Anti-bacterial activity (MIC), strain MSSA 15-4 ([2]; clinical isolate MSSA 15-4) was 0.5 µg/mL. The Anti-bacterial activity (MIC), strain MSSA 15-5 ([2]; clinical isolate MSSA 15-5) was 0.5 µg/mL, the Anti-bacterial activity (MIC), strain MSSA 15-6 ([2]; clinical isolate MSSA 15-6) was 0.5 µg/mL and the Anti-bacterial activity (MIC), strain EFA 15-1 ([3]; clinical isolate EFA 15-1) was 4 µg/mL. The Anti-bacterial activity (MIC), strain EFA 15-2 ([3]; clinical isolate EFA 15-2) was 4 µg/mL, the Anti-bacterial activity (MIC), strain EFA 15-3 ([3]; clinical isolate EFA 15-3) was 1 µg/mL and the Anti-bacterial activity (MIC), strain EFA 15-4 ([3]; clinical isolate EFA 15-4) was 4 µg/mL. It also gave an Anti-bacterial activity (MIC), strain EFA 15-5 ([3]; clinical isolate EFA 15-5) of 4 µg/mL, an Anti-bacterial activity (MIC), strain EFA 15-6 ([3]; clinical isolate EFA 15-6) of 4 µg/mL and an Anti-bacterial activity (MIC), strain EFA 15-9 ([3]; clinical isolate EFA 15-9) of 4 µg/mL. The Anti-bacterial activity (MIC), strain BCA 14-1 ([4]; clinical isolate BCA 14-1) was 1 µg/mL, the Anti-bacterial activity (MIC), strain BCA 14-4 ([4]; clinical isolate BCA 14-4) was 2 µg/mL and the Anti-bacterial activity (MIC), strain BCA 14-5 ([4]; clinical isolate BCA 14-5) was 0.25 µg/mL. The Anti-bacterial activity (MIC), strain BCA 14-6 ([4]; clinical isolate BCA 14-6) was 4 µg/mL, the Anti-bacterial activity (MIC), strain BCA 14-7 ([4]; clinical isolate BCA 14-7) was 1 µg/mL and the Anti-bacterial activity (MIC), strain BCA 14-8 ([4]; clinical isolate BCA 14-8) was 4 µg/mL. The Anti-bacterial activity (MIC), strain BCA 14-10 [4] was 0.5 µg/mL, the Anti-bacterial activity (MIC), strain EFM 15-1 ([5]; clinical isolate EFM 15-1) was 1 µg/mL and the Anti-bacterial activity (MIC), strain EFM 15-2 ([5]; clinical isolate EFM 15-2) was 2 µg/mL. It also gave an Anti-bacterial activity (MIC), strain EFM 15-3 ([5]; clinical isolate EFM 15-3) of 0.25 µg/mL, an Anti-bacterial activity (MIC), strain EFM 15-4 ([5]; clinical isolate EFM 15-4) of 1 µg/mL and an Anti-bacterial activity (MIC), strain EFM 15-5 ([5]; clinical isolate EFM 15-5) of 1 µg/mL. The Anti-bacterial activity (MIC), strain EFM 15-6 ([5]; clinical isolate EFM 15-6) was 2 µg/mL, the Anti-bacterial activity (MIC), strain SPN 16-2 ([6]; clinical isolate SPN 16-2) was 0.25 µg/mL and the Anti-bacterial activity (MIC), strain SPN 16-4 ([6]; clinical isolate SPN 16-4) was 4 µg/mL. The Anti-bacterial activity (MIC), strain ECO+ 15-1 ([7]; clinical isolate ECO+ 15-1) was 32 µg/mL, the Anti-bacterial activity (MIC), strain ECO+ 15-2 ([7]; clinical isolate ECO+ 15-2) was 32 µg/mL and the Anti-bacterial activity (MIC), strain ECO+ 15-3 ([7]; clinical isolate ECO+ 15-3) was 32 µg/mL. It also gave an Anti-bacterial activity (MIC), strain ECO+ 15-4 ([7]; clinical isolate ECO+ 15-4) of 32 µg/mL, an Anti-bacterial activity (MIC), strain ECO− 15-1 ([7]; clinical isolate ECO− 15-1) of 32 µg/mL and an Anti-bacterial activity (MIC), strain ECO− 15-2 ([7]; clinical isolate ECO− 15-2) of 32 µg/mL. The Anti-bacterial activity (MIC), strain ECO− 15-3 ([7]; clinical isolate ECO− 15-3) was 32 µg/mL, the Anti-bacterial activity (MIC), strain ECO− 15-4 ([7]; clinical isolate ECO− 15-4) was 32 µg/mL and the Anti-bacterial activity (MIC), strain MRSE 15-1 ([8]; clinical isolate MRSE 15-1) was 0.5 µg/mL. It also gave an Anti-bacterial activity (MIC), strain MRSE 15-2 ([8]; clinical isolate MRSE 15-2) of 1 µg/mL, an Anti-bacterial activity (MIC), strain MRSE 15-3 ([8]; clinical isolate MRSE 15-3) of 1 µg/mL and an Anti-bacterial activity (MIC), strain MRSE 15-7 ([8]; clinical isolate MRSE 15-7) of 1 µg/mL. The Anti-bacterial activity (MIC), strain MRSA 15-1 ([9]; clinical isolate MRSA 15-1) was 0.5 µg/mL, the Anti-bacterial activity (MIC), strain MRSA 15-2 ([9]; clinical isolate MRSA 15-2) was 1 µg/mL and the Anti-bacterial activity (MIC), strain MRSA 15-3 ([9]; clinical isolate MRSA 15-3) was 0.5 µg/mL. The Anti-bacterial activity (MIC), strain MRSA 15-4 ([9]; clinical isolate MRSA 15-4) was 1 µg/mL and the inhibition at 30 µM [10] was 24%.
